Experimental data: patent US6531509B2, “Stable gabapentin containing more than 20 ppm of chlorine ion” (Teva Pharmaceutical Industries Ltd., priority 2000, dated 2003)

Assays:
cardiozole cramp = settings: in animals; cited from earlier work
[1] = Long-term storage stability of purified gabapentin (lactam formation, HPLC vs. standard); type: physicochemical; settings: purified bulk gabapentin
Description: Gabapentin purified according to these procedures contains less than 0.5% lactam as measured by HPLC vs. standard.

[2] = according to Augart; cited from earlier work

Row | Compound | effect against cardiozole cramp (cardiozole cramp) | amount of lactam after storage ([1]; a year of storage at 25° C. and 50% relative humidity) | conversion of gabapentin to its corresponding lactam ([1]; a year of storage at 25° C. and 60% relative humidity) | amount of lactam after storage ([1]; a year of storage at 55° C. and 50% relative humidity) | toxicity relative to gabapentin [2]
1 | NCC1(CC(=O)O)CCCCC1 [Gabapentin, 1-(aminomethyl)-1-cyclohexaneacetic acid] | protective effect against cardiozole cramp | less than 0.5 % by weight | ≤ 0.2 % by weight of gabapentin | less than 0.5 % by weight | 
2 | O=C1CC2(CCCCC2)CN1 [lactam] |  |  |  |  | higher toxicity than gabapentin
